Data taken from article PMC12583704 (Signal Transduction and Targeted Therapy, 2025).
Where “and” joins values, the source holds several entries; their conditions need not be identical. Equal values may be shown once.

Assay: Phase 1 study NCT03594422: adverse events graded by NCI CTCAE v4.03
Format: in vivo, human
Experimental: Part 1 was a dose-escalation study to determine the recommended phase 2 dose (RP2D) in solid tumors. […] The initial design was a 3 + 3 dose escalation from 20 mg, but the protocol was amended to randomly enroll and assign patients to starting doses of 30, 40, and 50 mg on the basis of safety data acquired in the CML trial.[20] […] An interactive web response system was used for randomization. Part 2 was a nonrandomized study focusing on patients with SDH-deficient GISTs. […] On the basis of preliminary data from adult patients, adolescent patients with advanced wild-type GISTs were also included in Part 2. The dosage for adolescents was adjusted according to their body weights.
AEs were evaluated at each follow-up visit: on Days 1, 8, 15, and 22 during Cycles 1 and 2; and on Days 1 and 15 in Cycle 3 and all subsequent cycles, up to 30 days after the final dose. All AEs were graded according to the National Cancer Institute Common Terminology Criteria for Adverse Events v4.03. Clinical laboratory investigations for routine blood examinations and serum chemistry parameters were performed during every cycle (on Day 1), during Cycles 1 and 2 (on Days 8, 15, and 22), and 30 days after the last dose of treatment. Urinalysis, coagulation, cardiac troponin I/T, lipase, amylase, and electrocardiographic evaluations were conducted at baseline; during Cycles 1 and 2 (on Days 1 and 15); during Cycles 3, 5, 7, and 9; every three cycles after Cycle 9 (on Day 1); and 14 days after the last dose of treatment. All patients underwent tumor imaging for response assessment via computed tomography or magnetic resonance imaging at screening and every two cycles (8 weeks) until progression or discontinuation. Target and nontarget lesions were assessed per the Response Evaluation Criteria in Solid Tumors version 1.1 (RECIST v1.1).

Q: For `Cc1ccc(C(=O)Nc2ccc(CN3CCN(C)CC3)c(C(F)(F)F)c2)cc1C#Cc1cnc2[nH]ncc2c1` [Olverembatinib, 3-[(1H-pyrazolo[3,4-b]pyridin-5-yl)ethynyl]-4-methyl-N-{4-[(4-methylpiperazin-1-yl)methyl]-3-(trifluoromethyl)phenyl]benzamide], which “TRAE: Hypoalbuminemia” value (50 mg (n = 16), Grade 3-5) is on record?
A: 0 n (%)

Q: And the “TRAE: Leukocyte count increased” value (50 mg (n = 16), Grade 3-5)?
A: 0 n (%)

Q: And the “TRAE: Melanocytic nevus” value (50 mg (n = 16), Grade 3-5)?
A: 0 n (%)

Q: And the “TRAE: Neutrophil count increased” value (50 mg (n = 16), Grade 3-5)?
A: 0 n (%)

Q: And the “TRAE: Platelet count increased” value (50 mg (n = 16), Grade 3-5)?
A: 0 n (%)

Q: And the “TRAE: Pyrexia” value (50 mg (n = 16), Grade 3-5)?
A: 0 n (%)

Q: What about the “TEAE: Abdominal pain” value (Total (n = 66), Any grade) of the same molecule?
A: 15 (22.7) n (%)

Q: And the “TEAE: Alanine aminotransferase increased” value (Total (n = 66), Any grade)?
A: 25 [37.9%] n (%) and 25 (37.9) n (%)

Q: And the “TEAE: Anemia” value (Total (n = 66), Any grade)?
A: 31 [47.0%] n (%) and 31 (47.0) n (%)

Q: And the “TEAE: Aspartate aminotransferase increased” value (Total (n = 66), Any grade)?
A: 31 [47%] n (%) and 31 (47.0) n (%)

Q: And the “TEAE: C-reactive protein increased” value (Total (n = 66), Any grade)?
A: 15 (22.7) n (%)

Q: What about the “TEAE: Constipation” value (Total (n = 66), Any grade) of the same molecule?
A: 27 [40.9%] n (%) and 27 (40.9) n (%)

Q: What about the “TEAE: Fatigue” value (Total (n = 66), Any grade) of the same molecule?
A: 20 [30.3%] n (%) and 20 (30.3) n (%)

Q: And the “TEAE: Hyperuricemia” value (Total (n = 66), Any grade)?
A: 31 (47.0) n (%)

Q: And the “TEAE: Hypoalbuminemia” value (Total (n = 66), Any grade)?
A: 14 (21.2) n (%)

Q: And the “TEAE: Leukocyte count increased” value (Total (n = 66), Any grade)?
A: 32 [48.5%] n (%) and 32 (48.5) n (%)

Q: And the “TEAE: Melanocytic nevus” value (Total (n = 66), Any grade)?
A: 17 (25.8) n (%)

Q: And the “TEAE: Neutrophil count increased” value (Total (n = 66), Any grade)?
A: 25 [37.9%] n (%) and 25 (37.9) n (%)

Q: And the “TEAE: Pyrexia” value (Total (n = 66), Any grade)?
A: 28 [42.4%] n (%) and 28 (42.4) n (%)

Q: What about the TEAEs (Total (n = 66), Any grade) of the same molecule?
A: 66 (100.0%) n (%) and 66 (100.0) n (%)

Q: What about the “TRAE: ALT increased” value (Total (n = 66), Any grade) of the same molecule?
A: 20 (30.3) n (%)

Q: What about the “TRAE: AST increased” value (Total (n = 66), Any grade) of the same molecule?
A: 23 (34.8) n (%)

Q: And the “TRAE: Anemia” value (Total (n = 66), Any grade)?
A: 9 (13.6) n (%)

Q: And the “TRAE: Blood creatinine increased” value (Total (n = 66), Any grade)?
A: 9 (13.6) n (%)

Q: And the “TRAE: Constipation” value (Total (n = 66), Any grade)?
A: 23 (34.8) n (%)

Q: What about the “TRAE: Fatigue” value (Total (n = 66), Any grade) of the same molecule?
A: 18 (27.3) n (%)

Q: And the “TRAE: Hypoalbuminemia” value (Total (n = 66), Any grade)?
A: 10 (15.2) n (%)

Q: What about the “TRAE: Leukocyte count increased” value (Total (n = 66), Any grade) of the same molecule?
A: 27 (40.9) n (%)

Q: What about the “TRAE: Melanocytic nevus” value (Total (n = 66), Any grade) of the same molecule?
A: 15 (22.7) n (%)

Q: What about the “TRAE: Neutrophil count increased” value (Total (n = 66), Any grade) of the same molecule?
A: 22 (33.3) n (%)

Q: And the “TRAE: Platelet count increased” value (Total (n = 66), Any grade)?
A: 7 (10.6) n (%)

Q: What about the “TRAE: Pyrexia” value (Total (n = 66), Any grade) of the same molecule?
A: 19 (28.8) n (%)

Q: What about the “TEAE: Abdominal pain” value (Total (n = 66), Grade 3-5) of the same molecule?
A: 1 (1.5) n (%)

Q: And the “TEAE: Alanine aminotransferase increased” value (Total (n = 66), Grade 3-5)?
A: 2 (3.0) n (%)

Q: And the “TEAE: Anemia” value (Total (n = 66), Grade 3-5)?
A: 4 (6.1) n (%)

Q: And the “TEAE: Aspartate aminotransferase increased” value (Total (n = 66), Grade 3-5)?
A: 2 (3.0) n (%)

Q: And the “TEAE: C-reactive protein increased” value (Total (n = 66), Grade 3-5)?
A: 0 n (%)

Q: And the “TEAE: Constipation” value (Total (n = 66), Grade 3-5)?
A: 0 n (%)

Q: What about the “TEAE: Fatigue” value (Total (n = 66), Grade 3-5) of the same molecule?
A: 1 (1.5) n (%)

Q: And the “TEAE: Hyperuricemia” value (Total (n = 66), Grade 3-5)?
A: 1 (1.5) n (%)

Q: And the “TEAE: Hypoalbuminemia” value (Total (n = 66), Grade 3-5)?
A: 0 n (%)

Q: And the “TEAE: Leukocyte count increased” value (Total (n = 66), Grade 3-5)?
A: 0 n (%)

Q: What about the “TEAE: Melanocytic nevus” value (Total (n = 66), Grade 3-5) of the same molecule?
A: 0 n (%)

Q: What about the “TEAE: Neutrophil count increased” value (Total (n = 66), Grade 3-5) of the same molecule?
A: 0 n (%)

Q: What about the “TEAE: Pyrexia” value (Total (n = 66), Grade 3-5) of the same molecule?
A: 0 n (%)

Q: What about the TEAEs (Total (n = 66), Grade 3-5) of the same molecule?
A: 26 (39.4) n (%)

Q: And the “TRAE: ALT increased” value (Total (n = 66), Grade 3-5)?
A: 1 (1.5) n (%)

Q: And the “TRAE: AST increased” value (Total (n = 66), Grade 3-5)?
A: 1 (1.5) n (%)

Q: And the “TRAE: Anemia” value (Total (n = 66), Grade 3-5)?
A: 0 n (%)

Q: And the “TRAE: Blood creatinine increased” value (Total (n = 66), Grade 3-5)?
A: 0 n (%)

Q: What about the “TRAE: Constipation” value (Total (n = 66), Grade 3-5) of the same molecule?
A: 0 n (%)

Q: What about the “TRAE: Fatigue” value (Total (n = 66), Grade 3-5) of the same molecule?
A: 1 (1.5) n (%)

Q: What about the “TRAE: Hypoalbuminemia” value (Total (n = 66), Grade 3-5) of the same molecule?
A: 0 n (%)

Q: What about the “TRAE: Leukocyte count increased” value (Total (n = 66), Grade 3-5) of the same molecule?
A: 0 n (%)

Q: And the “TRAE: Melanocytic nevus” value (Total (n = 66), Grade 3-5)?
A: 0 n (%)

Q: And the “TRAE: Neutrophil count increased” value (Total (n = 66), Grade 3-5)?
A: 0 n (%)

Q: What about the “TRAE: Platelet count increased” value (Total (n = 66), Grade 3-5) of the same molecule?
A: 0 n (%)

Q: What about the “TRAE: Pyrexia” value (Total (n = 66), Grade 3-5) of the same molecule?
A: 0 n (%)

Q: What about the “patients who experienced grade ≥3 TRAEs” value (all 66 patients) of the same molecule?
A: 13.6%

Q: What about the “patients who experienced treatment-related AEs (TRAEs)” value (all 66 patients) of the same molecule?
A: 93.9%

Q: What about the “treatment-related serious AEs” value (all 66 patients) of the same molecule?
A: 7.6%

Q: What about the “Treatment-related SAE” value (all patients, Population, N 68) of the same molecule?
A: 5 (7.4) n (%)

Q: What about the “Treatment-related SAE: Anemia” value (all patients, Population, N 68) of the same molecule?
A: 1 (1.5) n (%)

Q: And the “Treatment-related SAE: Arteriosclerosis coronary artery” value (all patients, Population, N 68)?
A: 1 (1.5) n (%)

Q: What about the “Treatment-related SAE: Intestinal obstruction” value (all patients, Population, N 68) of the same molecule?
A: 2 (2.9) n (%)

Q: What about the “Treatment-related SAE: Leukemoid reaction” value (all patients, Population, N 68) of the same molecule?
A: 1 (1.5) n (%)

Q: What about the RP2D (based on safety data from a previous phase 1 study and randomization in Part 1) of the same molecule?
A: 40 mg QOD

Q: And the “treatment discontinuation because of AEs” value (in vivo)?
A: no patients discontinued treatment because of AEs
